# Laboratory results from patent publication US20200246316A1, “METHODS OF TREATING POST-SURGICAL PAIN WITH A THIAZOLINE ANTI-HYPERALGESIC AGENT” (CERSCI THERAPEUTICS, INC., priority 2019, published 2020).
# Structures can show the parent of a compound that is named as a salt.
# Assays:
# [1] = Dose formulation stability (HPLC/UV); type: physicochemical
# Description: Dose formulation analysis for all good laboratory practice (GLP) general toxicology studies was performed using a validated high-performance liquid chromatography (HPLC)/ultraviolet (UV) analytical method (2750-001-001 Dose Formulation Method 1). The vehicle used in the in vivo toxicology studies was 0.5% HPMC). The analytical method utilized HPLC with monitoring at 227 nm with an isocratic mobile phase of methanol with the column temperature set to 25° C. Linearity over a range of 1.0 to 200 mg/mL was observed. Dose formulations over this range were stable at room temperature for up to 13 days and were stable when stored frozen at −20° C. for up to 85 days.
# In addition, formulation analysis for in vitro genetic toxicology studies was performed using a validated HPLC/UV analytical method (2750-001-001 Dose Formulation Method No. 2) with linearity over a range of 0.001 to 50 mg/mL. Dose formulations for in vitro assays were stable at room temperature for up to 1 day and when stored frozen at −20° C. for up to 45 days.
# [2] = Gravimetric Vapor Sorption (GVS); type: physicochemical
# From the text: The sample is hygroscopic.
# [3] = Elimination from plasma after intravenous administration in rats; type: in vivo; details: rat
smiles,measurement,setting,value
"CC1(C)SC(Nc2ccccc2O)=N[C@@H]1C(=O)O [Compound 1, (R)-2-(2-hydroxyphenylamino)-5,5-dimethyl-4,5-dihydrothiazole-4-carboxylic acid mono-hydrochloride]",dose formulation stability,"[1]; 0.5% HPMC, 1.0 to 200 mg/mL, room temperature",up to 13 days
same,dose formulation stability,"[1]; 0.5% HPMC, 1.0 to 200 mg/mL, stored frozen at −20° C.",up to 85 days
same,dose formulation stability,"[1]; formulations for in vitro assays, 0.001 to 50 mg/mL, room temperature",up to 1 day
same,dose formulation stability,"[1]; formulations for in vitro assays, 0.001 to 50 mg/mL, stored frozen at −20° C.",up to 45 days
same,hygroscopicity,[2]; GVS,hygroscopic
same,GVS uptake,[2]; between 0% and 90% RH,6%
same,half-life,[3],~3 h
